Reference: patent publication US8933195B2, “Histone deacetylase inhibitors and synthetic method thereof and use thereof in manufacture of medicaments” (Nanjing Yoko Biomedical R & D Ltd., priority 2011, dated 2015)

Legend:
HDAC1 = HDAC1 (Homo sapiens, UniProt Q13547); assay: Measurement of biochemical activities of HDAC (fluorescently-labeled acetylated lysine substrate); conditions: read-out: IC50 HDAC1
Procedure: (§1) 1. Measurement principles: the measurement of biochemical activities of compounds is determined according to the degree of the compounds inhibiting the deacylation of HDAC enzyme. After the fluorescently-labeled substrate containing acetylated lysine side chain reacts with the HDAC enzyme, the fluorogenic substrate is deacetylated. After the deacetylated fluorescently-labeled substrate is cracked by the enzyme, a fluorescent substance is released. The fluorescent substance generates emitting light of 460 nm under the excitation of light of 360 nm.
(§2) 2. Detailed steps: the substrate of HDAC is diluted to […] (the reaction concentration is […]) with a reaction buffer. HDAC enzyme is diluted to a proper concentration. The compounds to be detected in different concentrations are added. The mixture reacts for 30 min at 37. Then the developer with the same volume and twice concentration of the substrate is added into the mixture. The mixture is incubated for 15 min at room temperature. Finally, the reading is measured with a micro plate scanner. The excitation light is 360 nm, the emitting light is 460 nm, and the data is processed with Prime 4 software.

HDAC7 = target: T1, HDAC7 (Homo sapiens, UniProt Q8WUI4); assay: as above
T1 sequence (Q8WUI4 1-952): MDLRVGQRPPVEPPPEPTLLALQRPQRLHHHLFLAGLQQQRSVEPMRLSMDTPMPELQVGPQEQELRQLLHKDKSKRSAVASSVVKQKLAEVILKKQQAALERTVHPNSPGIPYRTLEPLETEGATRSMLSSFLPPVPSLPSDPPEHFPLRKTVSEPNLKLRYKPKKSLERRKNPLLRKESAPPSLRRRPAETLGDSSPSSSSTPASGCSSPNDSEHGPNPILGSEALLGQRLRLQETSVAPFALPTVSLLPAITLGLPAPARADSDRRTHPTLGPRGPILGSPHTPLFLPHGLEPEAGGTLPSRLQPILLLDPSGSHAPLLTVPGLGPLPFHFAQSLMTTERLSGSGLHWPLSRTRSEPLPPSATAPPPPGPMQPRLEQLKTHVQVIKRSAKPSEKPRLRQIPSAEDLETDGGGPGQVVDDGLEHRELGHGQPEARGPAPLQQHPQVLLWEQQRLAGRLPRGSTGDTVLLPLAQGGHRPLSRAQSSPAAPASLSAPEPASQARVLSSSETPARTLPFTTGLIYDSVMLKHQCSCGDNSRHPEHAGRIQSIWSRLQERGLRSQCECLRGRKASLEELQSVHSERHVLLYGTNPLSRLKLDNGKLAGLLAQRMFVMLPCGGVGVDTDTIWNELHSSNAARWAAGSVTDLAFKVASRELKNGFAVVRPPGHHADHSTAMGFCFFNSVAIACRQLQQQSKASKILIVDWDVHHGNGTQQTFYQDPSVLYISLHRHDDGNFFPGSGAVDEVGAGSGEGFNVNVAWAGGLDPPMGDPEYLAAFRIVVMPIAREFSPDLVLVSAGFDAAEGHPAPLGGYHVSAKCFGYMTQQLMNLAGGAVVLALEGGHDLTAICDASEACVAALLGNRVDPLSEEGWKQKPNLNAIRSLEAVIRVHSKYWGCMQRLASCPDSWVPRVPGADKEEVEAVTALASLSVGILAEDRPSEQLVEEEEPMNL
Procedure: as §1, §2

[1] = tested on: A549 (human lung cancer cells); assay: MTT cancer cell growth inhibition; assay type: cell-based; conditions: 72 h
Excerpt: (§3) 1. Experimental principles: the inhibition of cancer cell growth with compounds is detected by an MTT method. The principle of the MTT method is as follows: yellow thiazolyl blue may penetrate through cell membranes and enter into cells, succinate dehydrogenase in living cell mitochondria may reduce exogenous MTT into water-insoluble ianthinus acicular Formazan crystals which deposit in the cells, the crystals can be dissolved with dimethyl sulfoxide (DMSO), the optical density of the crystals is detected with an enzyme-linked immunometric meter at the wavelength of 490 nm/570 nm, and the number of cells can be indirectly reflected.
(§4) 2. Experimental materials: the used cancer cell lines are Hela (human cervical cancer cells), MCF-7 (human breast cancer cells), BGC-823 (human gastric cancer cells), A549 (human lung cancer cells), HT1080 (human fibrosarcoma cells), A431 (human epidermal squamous cell carcinoma cells), HUVEC (human umbilical vein endothelial cells), DU145 (human prostate cancer cells), K562 (human leukemia cells), U937 (human leukemia cells), Pac-1 (human pancreatic cancer cells), and MOLT-4 (human acute lymphoblastic leukemia cells), which are cultured with a DMEM+10% FBS culture medium or a 1640+10% FBS culture medium, respectively.
(§5) Experimental groups: 190 μl cell suspension+10 μl pharmaceuticals in different concentrations (the final concentration is 10^−5-10^−10M)
(§6) Negative control group: 190 μl cell suspension+10 μl 2% DMSO (the final concentration of DMSO is 0.1%)
(§7) a) Cells are inoculated on a 96-pore plate, with 1500 cells and 190 μl for each hole, and cultured overnight in a 5% CO2 incubator at 37.
(§8) b) 10 μl of different pharmaceuticals is added into each hole the next day, with the final concentration of the pharmaceuticals of 10^−5-10^−10M and three parallel holes, and incubated for 72 h in a 5% CO2 incubator at 37.
(§9) c) 20 μl of 5 mg/mL MTT is added into each hole, and incubated for 4 h in a 5% CO2 incubator at 37.
(§10) d) Supernatant is removed. 100 μl of DMSO is added into each hole and vibrated.
(§11) e) The reading is 570 nm. The cell survival rate is calculated.

[2] = tested on: BGC-823 (human gastric cancer cells); assay: MTT cancer cell growth inhibition; assay type: cell-based; conditions: 72 h, read-out: GI50 BGC823
Excerpt: as §3, §4, §5, §6, §7, §8, §9, §10, §11

[3] = tested on: DU145 (human prostate cancer cells); assay: MTT cancer cell growth inhibition; assay type: cell-based; conditions: DU-145, 72 h
Excerpt: as §3, §4, §5, §6, §7, §8, §9, §10, §11

[4] = tested on: HT1080 (human fibrosarcoma cells); assay: MTT cancer cell growth inhibition; assay type: cell-based; conditions: HT-1080, 72 h
Excerpt: as §3, §4, §5, §6, §7, §8, §9, §10, §11

[5] = tested on: Hela (human cervical cancer cells); assay: MTT cancer cell growth inhibition; assay type: cell-based; conditions: 72 h
Excerpt: as §3, §4, §5, §6, §7, §8, §9, §10, §11

[6] = tested on: MCF-7 (human breast cancer cells); assay: MTT cancer cell growth inhibition; assay type: cell-based; conditions: MCF7, 72 h
Excerpt: as §3, §4, §5, §6, §7, §8, §9, §10, §11

[7] = tested on: MOLT-4 (human acute lymphoblastic leukemia cells); assay: MTT cancer cell growth inhibition; assay type: cell-based; conditions: 72 h
Excerpt: as §3, §4, §5, §6, §7, §8, §9, §10, §11

PANC-1 = assay: MTT cancer cell growth inhibition; assay type: cell-based; conditions: Homo sapiens, 72 h
Excerpt: as §3, §4, §5, §6, §7, §8, §9, §10, §11

[8] = tested on: U937 (human leukemia cells); assay: MTT cancer cell growth inhibition; assay type: cell-based; conditions: U-937, 72 h
Excerpt: as §3, §4, §5, §6, §7, §8, §9, §10, §11

Incap = assay: MTT cancer cell growth inhibition; assay type: cell-based; conditions: 72 h

Chain of HDAC1 (Q13547 whole entry, species assumed): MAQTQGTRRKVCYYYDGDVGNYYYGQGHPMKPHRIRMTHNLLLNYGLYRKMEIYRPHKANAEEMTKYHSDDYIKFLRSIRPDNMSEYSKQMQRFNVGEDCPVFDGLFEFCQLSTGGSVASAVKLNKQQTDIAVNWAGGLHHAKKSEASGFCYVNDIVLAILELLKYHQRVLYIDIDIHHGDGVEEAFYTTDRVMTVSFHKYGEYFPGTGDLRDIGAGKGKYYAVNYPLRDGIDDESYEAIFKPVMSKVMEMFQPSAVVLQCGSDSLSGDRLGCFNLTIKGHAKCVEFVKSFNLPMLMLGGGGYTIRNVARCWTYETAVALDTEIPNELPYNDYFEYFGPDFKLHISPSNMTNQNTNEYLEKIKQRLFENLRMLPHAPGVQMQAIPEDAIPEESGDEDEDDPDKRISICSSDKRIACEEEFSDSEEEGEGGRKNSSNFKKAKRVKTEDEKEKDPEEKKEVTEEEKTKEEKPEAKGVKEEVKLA

SMILES	IC50 (HDAC1) [nM]	IC50 HDAC7 (HDAC7)	GI50 [1] [nM]	GI50 [2] [nM]	GI50 [3] [nM]	GI50 [4] [nM]	GI50 [5] [nM]	GI50 [6] [nM]	GI50 [7] [nM]	GI50 (PANC-1) [nM]	GI50 [8] [nM]	GI50 (Incap) [nM]
C/C=C1\NC(=O)c2csc(n2)CNC(=O)C[C@@H](/C=C/CCSC(=O)Cc2ccccc2)OC(=O)[C@H](C(C)C)NC1=O [Compound 6-4]	< 10000	no activity	4600	2550	420	1330	500	690	2650	1250	6350	630
CCCCCCCC(=O)SCC/C=C/[C@@H]1CC(=O)NCc2nc(cs2)C(=O)NCC(=O)N[C@@H](C(C)C)C(=O)O1 [Compound 3-3]	< 10000	no activity	1090	5940	50	60	450	1200	2120	4130	140	450
C/C=C1\NC(=O)c2csc(n2)CNC(=O)C[C@@H](/C=C/CCSC(=O)CCCCCCC)OC(=O)CNC1=O [Compound 1-1]	< 100	no activity	90	100	8	50	400	90	9	300	7	50
C/C=C1\NC(=O)c2csc(n2)CNC(=O)C[C@@H](/C=C/CCSC(=O)CCN)OC(=O)[C@H](C(C)C)NC1=O [Compound 6-6]	< 1000	no activity	1	65	300	4160	860	952	56400	1650	1290	650
C/C=C1\NC(=O)c2csc(n2)CNC(=O)C[C@@H](/C=C/CCSC(C)=O)OC(=O)[C@H](C(C)C)NC1=O [Compound 6-2]	< 10000	no activity	15600	4600	1600	41000	73500	59600	400	680	2650	900
